Measurements from US20130065883A1 (Centro Nacional de Investigaceiones Oncologicas (CNIO), priority 2010, published 2013).
Read-outs that look alike come from different tables or passages of the source.

Columns and labels:
[1] = target: T1, PIM-3 (Homo sapiens, UniProt Q86V86); experiment: PIM-3 biochemical assay (ADP Hunter); conditions: read-out: PIM3 IC50;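 note: kinase activity read out as the quantity of ADP generated by the enzyme reaction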
T1 construct: purchased Millipore 14-738

[2] = target: T2, PIM-1 (Homo sapiens, UniProt P11309); experiment: PIM-1 biochemical assay (ADP Hunter); conditions: read-out: PIM1 IC50;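 note: recombinant human PIM-1 carrying a C-terminal His tag, kinase activity quantified via ADP formed as the direct enzymatic product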
T2 construct: histidine tag (C); made in house

[3] = target: T3, PIM-2 (Homo sapiens, UniProt Q9P1W9); experiment: PIM-2 biochemical assay (ADP Hunter); conditions: semi-quantitative class; read-out: PIM2 IC50;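 note: recombinant N-terminally His-tagged human enzyme, kinase activity quantified by detection of ADP formed as the direct reaction product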
T3 construct: histidine tag (N); made in house

[4] = Metabolic stability assay; format: in vitro ADME; conditions: percentage metabolic stability in human liver microsomes
Procedure: The metabolic stability assay was performed in Wuxi. 1 μM, 15 min. The kinase selectivity testing was performed in ProQinase GmbH, Germany.

[5] = test system: panel of 24 kinases; experiment: Kinase selectivity testing (percentage inhibition of 24 kinases at 1 μM); format: biochemical; conditions: proquinase; for % inhibiton at 1 uM AKT2: AKT2, 1 uM; for % inhibiton at 1 uM CHK1: CHK1, 1 uM; for % inhibiton at 1 uM CK1 Alpha 1: CK1 Alpha 1, 1 uM; for % inhibiton at 1 uM FGFR1: FGFR1, 1 uM; for % inhibiton at 1 uM JAK2: JAK2, 1 uM; for % inhibiton at 1 uM MEK1: MEK1, 1 uM; for % inhibiton at 1 uM PAK1: PAK1, 1 uM; for % inhibiton at 1 uM PDK1: PDK1, 1 uM; for % inhibiton at 1 uM PLK1: PLK1, 1 uM; for % inhibiton at 1 uM RPS5 KA1: RPS5 KA1, 1 uM; for % inhibiton at 1 uM SGK1: SGK1, 1 uM
[6] = test system: H1299 cells overexpressing Pim1 (H1299Pim1); experiment: BAD S112 phosphorylation inhibition assay (In Cell ELISA); format: cell-based; conditions: Homo sapiens, NCI-H1299, inhibition of Bad-phosphorylation, read-out: Cell assay BAD_P H1299 PIM1
[7] = target: T4, FLT3 (Homo sapiens, UniProt P36888); experiment: FLT3 biochemical assay (ADP Hunter);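 note: FLT3 enzymatic activity quantified through the ADP produced by the kinase reaction, detected with an ADP Hunter readout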
T4 sequence (P36888 27-993): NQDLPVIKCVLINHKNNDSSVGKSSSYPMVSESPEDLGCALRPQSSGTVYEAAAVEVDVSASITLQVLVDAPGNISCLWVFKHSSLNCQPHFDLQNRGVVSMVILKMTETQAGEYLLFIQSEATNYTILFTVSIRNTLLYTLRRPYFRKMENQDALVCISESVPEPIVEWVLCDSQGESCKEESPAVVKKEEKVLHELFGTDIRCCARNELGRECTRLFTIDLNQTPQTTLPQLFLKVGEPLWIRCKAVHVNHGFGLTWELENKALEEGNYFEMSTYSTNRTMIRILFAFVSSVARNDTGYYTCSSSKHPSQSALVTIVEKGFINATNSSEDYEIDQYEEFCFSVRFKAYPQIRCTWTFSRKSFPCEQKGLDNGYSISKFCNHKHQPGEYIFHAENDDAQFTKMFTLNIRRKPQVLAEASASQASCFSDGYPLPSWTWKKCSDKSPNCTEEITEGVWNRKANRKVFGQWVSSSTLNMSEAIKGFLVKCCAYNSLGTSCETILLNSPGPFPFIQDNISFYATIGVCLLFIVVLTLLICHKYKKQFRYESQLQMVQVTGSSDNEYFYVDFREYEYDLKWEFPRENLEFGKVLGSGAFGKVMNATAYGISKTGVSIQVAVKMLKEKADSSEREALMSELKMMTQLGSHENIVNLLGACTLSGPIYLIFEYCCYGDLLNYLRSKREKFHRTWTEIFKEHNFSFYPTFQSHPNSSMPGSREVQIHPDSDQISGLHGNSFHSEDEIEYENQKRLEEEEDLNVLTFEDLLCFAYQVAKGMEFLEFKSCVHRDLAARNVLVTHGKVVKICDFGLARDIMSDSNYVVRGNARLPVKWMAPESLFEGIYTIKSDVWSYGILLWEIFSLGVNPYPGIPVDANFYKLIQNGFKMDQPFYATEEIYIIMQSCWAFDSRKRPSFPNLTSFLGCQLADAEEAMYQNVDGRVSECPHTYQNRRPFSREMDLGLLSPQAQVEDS

[8] = test system: tumor cell lines; experiment: Combination assay (MTT in vitro cell proliferation, combination index); format: cell-based; conditions: for EC50: read-out: Pim Inh EC50
[9] = actual IC50 value in parentheses

T2 sequence (P11309 whole entry): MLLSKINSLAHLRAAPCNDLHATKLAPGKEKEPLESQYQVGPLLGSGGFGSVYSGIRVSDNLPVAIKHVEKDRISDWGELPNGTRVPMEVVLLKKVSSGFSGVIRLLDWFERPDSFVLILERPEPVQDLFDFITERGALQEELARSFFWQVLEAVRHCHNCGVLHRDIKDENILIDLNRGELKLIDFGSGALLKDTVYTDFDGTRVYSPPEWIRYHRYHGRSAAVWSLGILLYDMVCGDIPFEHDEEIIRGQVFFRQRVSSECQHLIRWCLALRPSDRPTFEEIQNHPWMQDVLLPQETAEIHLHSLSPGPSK
T3 sequence (Q9P1W9 whole entry): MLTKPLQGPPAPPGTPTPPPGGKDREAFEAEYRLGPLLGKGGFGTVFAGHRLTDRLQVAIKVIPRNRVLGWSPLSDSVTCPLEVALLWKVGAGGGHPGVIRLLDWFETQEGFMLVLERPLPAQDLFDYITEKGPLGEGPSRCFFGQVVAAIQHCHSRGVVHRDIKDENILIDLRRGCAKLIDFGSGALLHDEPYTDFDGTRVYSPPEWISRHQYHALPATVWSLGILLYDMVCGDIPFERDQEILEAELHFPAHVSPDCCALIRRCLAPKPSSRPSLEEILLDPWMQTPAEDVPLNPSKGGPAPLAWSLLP

Structure (SMILES): FC(F)(F)c1cccc(-n2nnc3cc(Cl)c(NCC4CCNCC4)nc32)c1 [2-83]
- IC50 [1, 9]: 6 nM
- IC50 ([1]; semi-quantitative class): < 100 nM
- IC50 [2, 9]: 21 nM
- IC50 ([2]; semi-quantitative class): < 100 nM
- IC50 [3]: > 1000 nM
- Stability in HLM [4]: 112.7%
- % inhibiton at 1 uM AKT2 [5]: 0%
- % inhibiton at 1 uM B_RAF V600E [5]: 11%
- % inhibiton at 1 uM CDK8 CYCC [5]: 14%
- % inhibiton at 1 uM CHK1 [5]: 6%
- % inhibiton at 1 uM CK1 Alpha 1 [5]: 3%
- % inhibiton at 1 uM DYRK 1A [5]: 7%
- % inhibiton at 1 uM EGF_R [5]: 8%
- % inhibiton at 1 uM FAK [5]: 16%
- % inhibiton at 1 uM FGFR1 [5]: 39%
- % inhibiton at 1 uM IGF1_R [5]: 13%
- % inhibiton at 1 uM IKK BETA [5]: 0%
- % inhibiton at 1 uM INS_R [5]: 6%
- % inhibiton at 1 uM JAK2 [5]: 1%
- % inhibiton at 1 uM KIT [5]: 26%
- % inhibiton at 1 uM MEK1 [5]: 2%
- % inhibiton at 1 uM MET [5]: 0%
- % inhibiton at 1 uM PAK1 [5]: 11%
- % inhibiton at 1 uM PDGFR Alpha [5]: 14%
- % inhibiton at 1 uM PDK1 [5]: 3%
- % inhibiton at 1 uM PLK1 [5]: 0%
- % inhibiton at 1 uM RPS5 KA1 [5]: 36%
- % inhibiton at 1 uM SGK1 [5]: 6%
- % inhibiton at 1 uM SRC [5]: 24%
- EC50 [6]: 458 nM
- IC50 [7, 9]: 94 nM
- IC50 ([7]; semi-quantitative class): < 100 nM

Structure (SMILES): COc1cc(NCC2CCNCC2)nc2c1nnn2-c1cccc(OC(F)(F)F)c1 [2-92]
- Synergy ([8]; A549, combined with GDC-0941): +++ (0.1 < CI < 0.3 (+++))
- Synergy ([8]; DU145, combined with Taxotere): ++ (0.3 < CI < 0.7 (++))
- EC50 ([8]; HTC116, colon carcinoma): 10000 nM
- Synergy ([8]; HTC116, combined with PD-0325901): +++ (0.1 < CI < 0.3 (+++))
- Synergy ([8]; HTC116, combined with lapatinib): +++ (0.1 < CI < 0.3 (+++))
- EC50 ([8]; Homo sapiens, SK-MEL19, SKMel19, melanoma): 1000 nM
- Synergy ([8]; MV4:11, combined with lapatinib): ++ (0.3 < CI < 0.7 (++))
- Synergy ([8]; MiaPaca-2, combined with Gemcitabine): + (0.7 < CI < 1.2 (+))
- Synergy ([8]; NCIH1975, combined with GDC-0941): ++ (0.3 < CI < 0.7 (++))
- Synergy ([8]; PC3, combined with GDC-0941): + (0.7 < CI < 1.2 (+))
- Synergy ([8]; SKMel19, combined with GDC-0879): +++ (0.1 < CI < 0.3 (+++))
- Synergy ([8]; SKMel19, combined with GDC-0941): ++ (0.3 < CI < 0.7 (++))
- Stability in HLM [4]: 96.65%
- % inhibiton at 1 uM AKT2 [5]: 0%
- % inhibiton at 1 uM B_RAF V600E [5]: 1%
- % inhibiton at 1 uM CDK8 CYCC [5]: 0%
- % inhibiton at 1 uM CHK1 [5]: 0%
- % inhibiton at 1 uM CK1 Alpha 1 [5]: 4%
- % inhibiton at 1 uM DYRK 1A [5]: 0%
- % inhibiton at 1 uM EGF_R [5]: 1%
- % inhibiton at 1 uM FAK [5]: 0%
- % inhibiton at 1 uM FGFR1 [5]: 0%
- % inhibiton at 1 uM IGF1_R [5]: 5%
- % inhibiton at 1 uM IKK BETA [5]: 0%
- % inhibiton at 1 uM INS_R [5]: 0%
- % inhibiton at 1 uM JAK2 [5]: 2%
- % inhibiton at 1 uM KIT [5]: 2%
- % inhibiton at 1 uM MEK1 [5]: 1%
- % inhibiton at 1 uM MET [5]: 0%
- % inhibiton at 1 uM PAK1 [5]: 8%
- % inhibiton at 1 uM PDGFR Alpha [5]: 0%
- % inhibiton at 1 uM PDK1 [5]: 0%
- % inhibiton at 1 uM PLK1 [5]: 0%
- % inhibiton at 1 uM SGK1 [5]: 6%
- % inhibiton at 1 uM SRC [5]: 8%
- EC50 [6]: 136 nM

Structure (SMILES): COc1cc(NCC2CCNCC2)nc2c1nnn2-c1cccc(N(C)C)c1 [2-87]
- Stability in HLM [4]: 86.25%
- % inhibiton at 1 uM AKT2 [5]: 4%
- % inhibiton at 1 uM B_RAF V600E [5]: 0%
- % inhibiton at 1 uM CDK8 CYCC [5]: 0%
- % inhibiton at 1 uM CHK1 [5]: 3%
- % inhibiton at 1 uM CK1 Alpha 1 [5]: 5%
- % inhibiton at 1 uM DYRK 1A [5]: 1%
- % inhibiton at 1 uM EGF_R [5]: 0%
- % inhibiton at 1 uM FAK [5]: 6%
- % inhibiton at 1 uM FGFR1 [5]: 6%
- % inhibiton at 1 uM IGF1_R [5]: 0%
- % inhibiton at 1 uM IKK BETA [5]: 0%
- % inhibiton at 1 uM INS_R [5]: 0%
- % inhibiton at 1 uM JAK2 [5]: 1%
- % inhibiton at 1 uM KIT [5]: 10%
- % inhibiton at 1 uM MEK1 [5]: 7%
- % inhibiton at 1 uM MET [5]: 0%
- % inhibiton at 1 uM PAK1 [5]: 10%
- % inhibiton at 1 uM PDGFR Alpha [5]: 0%
- % inhibiton at 1 uM PDK1 [5]: 9%
- % inhibiton at 1 uM PLK1 [5]: 2%
- % inhibiton at 1 uM RPS5 KA1 [5]: 12%
- % inhibiton at 1 uM SGK1 [5]: 9%
- % inhibiton at 1 uM SRC [5]: 0%
- EC50 [6]: 100 nM

Structure (SMILES): O[C@H]1CC[C@@H](Nc2nc3c(cc2Cl)nnn3-c2cccc(OC(F)(F)F)c2)CC1 [2-85]
- IC50 ([1]; semi-quantitative class): 100 to 1000 nM
- IC50 [2, 9]: 74 nM
- IC50 ([2]; semi-quantitative class): < 100 nM
- IC50 [3]: 100 to 1000 nM
- EC50 [6]: 262 nM
- IC50 ([7]; semi-quantitative class): 100 to 1000 nM

Structure (SMILES): FC(F)(F)Oc1cccc(-n2nnc3cc(Cl)c(NCC4CCNCC4)nc32)c1 [2-54]
- EC50 ([8]; Homo sapiens, NCI-H23, NCIH23, non small cell lung carcinoma): 5000 nM
- Stability in HLM [4]: 93.95%
- % inhibiton at 1 uM B_RAF V600E [5]: 7%
- % inhibiton at 1 uM CK1 Alpha 1 [5]: 6%
- % inhibiton at 1 uM DYRK 1A [5]: 30%
- % inhibiton at 1 uM EGF_R [5]: 18%
- % inhibiton at 1 uM FAK [5]: 28%
- % inhibiton at 1 uM FGFR1 [5]: 32%
- % inhibiton at 1 uM IGF1_R [5]: 26%
- % inhibiton at 1 uM IKK BETA [5]: 17%
- % inhibiton at 1 uM INS_R [5]: 16%
- % inhibiton at 1 uM JAK2 [5]: 15%
- % inhibiton at 1 uM KIT [5]: 34%
- % inhibiton at 1 uM MEK1 [5]: 0%
- % inhibiton at 1 uM MET [5]: 19%
- % inhibiton at 1 uM PDGFR Alpha [5]: 23%
- % inhibiton at 1 uM RPS5 KA1 [5]: 8%
- % inhibiton at 1 uM SGK1 [5]: 7%
- EC50 [6]: 599 nM
